Results on five compounds are retold here after patent publication US10550150B2, “Short-chain peptides as Kappa (κ) opioid receptors (KOR) agonist” (CADILA HEALTHCARE LIMITED, priority 2015, dated 2020).

Molecules are shown by their SMILES. Read-outs that look alike come from different tables or passages of the source. A value given as a limit tells only on which side of the number the result lay.

The target of test [1] is T1, Kappa (κ) opioid receptors (KOR) (Homo sapiens, UniProt P41145).
T1 construct: host or cells: unnamed cells grown in Ham's F-12 medium
Put plainly: In vitro KOR agonistic activity, cAMP based functional assay. The test is classed as cell-based. On the procedure: a) In Vitro (EC50) Determination, Using cAMP Based Functional Assay:
In vitro, KOR agonistic activity of test compounds were assessed using cAMP based functional assay. A 96-well plate was seeded at the density of 30,000 cells/well in 100 μl/well of complete Ham's F-12 medium. After seeding, the plates were incubated overnight at 37° C., 5% CO2, in CO2 Incubator. Overnight medium was discarded and plate washed with 100 μl/well of sterile PBS. Then 90 μl of 0.1 mM IBMX containing 0.5% Fatty acid free BSA in plain HamsF12 was added to each well. This was allowed to incubate for 30 minutes at 37° C., 5% CO2. Forskolin 20 μM in 0.5% Fatty acid free BSA was added to each well and allowed to incubate at room temperature for 5 minutes. Dilution of test compounds was made at 200× in DMSO and then diluted 1:10 times in BSA containing plain HamsF12. Agonist (test compounds, in 10% DMSO) was added to each well (5 μl) and allowed to incubate for 20 minutes at 37° C., 5% CO2. After 20 minutes, media was aspirated from the wells and the wells were washed with 1×PBS. Cell lysis buffer 4× (Arbor Assays, Cat # X074-60 ML) was diluted 1:4 in MilliQ and 90 μl of this buffer was added per well. Cells were allowed to shake at 500 rpm, room temperature for 20 minutes. Cell lysate was collected in 1.5 ml eppendorf tubes and centrifuged at 13.2 k rpm, 4° C. for 15 minutes. 50 μl of the supernatant of cell lysate was then used for cAMP estimation by cAMP direct ELISA kit (Arbor Assays, Cat # K019-H5).

For test [2], the system named is acetic acid induced writhing. Put plainly: Acetic acid-induced writhing model (antinociceptive activity). The test is classed as in vivo. Particulars: acetic acid induced pain model, ICR mice (n = 6), iv. On the procedure:
In Vivo (ED50) Determination, Using Acetic Acid-Induced Writhing Model
The acetic acid induced writhing assay can detect antinociceptive activity for opioid drug, acting at peripheral, spinal and supraspinal levels. Animals were fasted 12 to 16 h prior testing. The nociceptive response (abdominal contractions or writhes) was induced by diluted acetic acid (0.6%, 10 ml/kg, for mice and 2.5%, 0.5 ml/rat) administered intraperitoneally (i.p.) at time 0 min.
In mouse experiments, compounds were administered orally, intravenously (i.v.) or subcutaneously (s.c.). To determine the antinociceptive potency and efficacy, full dose-response curves were constructed with test compounds, given 5 min prior to acetic acid administration. The duration of action was determined by using increasing pretreatment time (5, 60, and 120 min.), prior to acetic acid administration, for a sub-maximally effective dose defined during the dose-response curve study. In rat experiments, compounds were administered orally, intravenously (i.v.) or subcutaneously (s.c.), 15 min prior to acetic acid administration. The number of writhes was counted over the 15 min period following acetic acid administration. A writhe is defined as a constriction of the abdominal area, often with extension of the hind legs. Percentage maximum possible effect (MPE) was calculated as: % MPE=100−[(No. of writhes in test compound treated animal/No. of writhes in vehicle treated animal)]×100. ED50 dose was determined using GraphPad Prism.
For orientation: An intraperitoneal irritant provokes the stretching counted in writhing tests.

[3] abbreviates: cAMP based functional assay, forskolin stimulated, read-out: In-vitro EC50.
The mark [4] stands for this setting: refers to Table-4, read-out: in vitro KOR agonistic activity EC50.

T1 sequence (P41145 whole entry): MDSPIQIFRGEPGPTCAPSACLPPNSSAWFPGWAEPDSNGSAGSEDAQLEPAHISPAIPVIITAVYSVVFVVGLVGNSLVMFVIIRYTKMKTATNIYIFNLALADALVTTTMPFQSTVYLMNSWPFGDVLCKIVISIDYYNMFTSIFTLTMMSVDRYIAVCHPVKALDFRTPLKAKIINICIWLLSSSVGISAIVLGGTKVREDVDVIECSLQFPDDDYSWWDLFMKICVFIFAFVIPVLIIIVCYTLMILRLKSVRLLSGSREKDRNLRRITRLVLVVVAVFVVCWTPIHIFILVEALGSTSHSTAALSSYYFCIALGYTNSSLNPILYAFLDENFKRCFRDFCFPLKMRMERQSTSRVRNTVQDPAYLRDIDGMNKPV

For orientation: EC50 means the concentration at which the effect is half-maximal. `CCOC(=O)CN1CC2CN(C(=O)C(CCCCN)NC(=O)C(CC(C)C)NC(=O)C(Cc3ccccc3)NC(=O)C(N)Cc3ccccc3)CC2C1` (stereo not drawn) [Compound 15]: the EC50 is 0.007 nM in test [1] (setting [3]) and less than 0.1 nM in test [1] (setting [4]). For the same compound, the “In-vivo ED50” value in test [2] was 0.1 mpk.
The matching figures for `CC(C)CC(NC(=O)C(Cc1ccccc1)NC(=O)C(N)Cc1ccccc1)C(=O)NC(CCCCN)C(=O)N1CC2CN(CC(=O)O)CC2C1` (stereo not drawn) [Compound 16]: 0.004 nM, less than 0.1 nM and 0.1 mpk.
`CCOC(=O)CN1CC2CC(C1)N2C(=O)C(CCCCN)NC(=O)C(CC(C)C)NC(=O)C(Cc1ccccc1)NC(=O)C(N)Cc1ccccc1` (stereo not drawn) [Compound 35]: the values for the EC50 in test [1] (setting [3]) and in test [1] (setting [4]) were 0.01 nM and less than 0.1 nM, respectively. Further, the “In-vivo ED50” value in test [2] stood at 0.03 mpk.
`CC(C)CC(NC(=O)C(Cc1ccccc1)NC(=O)C(N)Cc1ccccc1)C(=O)NC(CCCCN)C(=O)N1C2CC1CN(CC(=O)O)C2` (stereo not drawn) [Compound 36]: the EC50 in test [1] (setting [3]) is 0.015 nM; in test [1] (setting [4]), less than 0.1 nM. In addition, the “In-vivo ED50” value in test [2] came to 0.04 mpk.
Regarding `CC(C)CC(NC(=O)C(Cc1ccccc1)NC(=O)C(N)Cc1ccccc1)C(=O)NC(CCCCN)C(=O)N1C2CC1CN(CC(N)=O)C2` (stereo not drawn) [Compound 37], the figures for the EC50 in test [1] (setting [3]) and in test [1] (setting [4]) were 0.083 nM and less than 0.1 nM, respectively. The “In-vivo ED50” value in test [2] is given as 0.08 mpk.
